This note sets out measurements from patent US9302999B2, “Substituted triazoles as herbicides” (E. I. DU PONT DE NEMOURS AND COMPANY, priority 2012, dated 2016).

Like-named read-outs stand apart in the source and are kept apart here.

What all share (assay type): in vivo
The subject of test [1] is oat, wild (wild oat, Avena fatua). The test is described as follows: Test D pre-/postemergence: oat, wild. The source says: (§1) Seeds of plant species selected from bluegrass (annual bluegrass, Poa annua), blackgrass (Alopecurus myosuroides), canarygrass (Phalaris minor), chickweed (common chickweed, Stellaria media), galium (catchweed bedstraw, Galium aparine), bromegrass, downy (downy bromegrass, Bromus tectorum), field poppy (Papaver rhoeas), field violet (Viola arvensis), foxtail, green (green foxtail, Setaria viridis), deadnettle (henbit deadnettle, Lamium amplexicaule), ryegrass, Italian (Italian ryegrass, Lolium multiflorum), kochia (Kochia scoparia), lambsquarters (Chenopodium album), oilseed rape (Brassica napus), pigweed (Amaranthus retroflexus), Russian thistle (Salsola iberica), chamomile (scentless chamomile, Matricaria inodora), speedwell (bird's-eye speedwell, Veronica persica), barley, spring (spring barley, Hordeum vulgare), wheat, spring (spring wheat, Triticum aestivum), buckwheat, wild (wild buckwheat, Polygonum convolvulus), mustard, wild (wild mustard, Sinapis arvensis), oat, wild (wild oat, Avena fatua), radish, wild (wild radish, Raphanus raphanistrum), windgrass (Apera spica-venti), barley, winter (winter barley, Hordeum vulgare), and wheat, winter (winter wheat, Triticum aestivum) were planted into a silt loam soil and treated preemergence with test chemicals formulated in a non-phytotoxic solvent mixture which included a surfactant. At the same time, these same crop and weed species were planted in pots containing the planting medium comprising spaghnum peat moss, vermiculite, wetting agent and starter nutrients and treated with postemergence applications of the test chemicals formulated in the same manner. Plants ranged in height from 2 to 18 cm (1- to 4-leaf stage).
(§2) Treated plants and controls were maintained in a controlled growth environment for 14 to 21 days after which time all species were compared to controls and visually evaluated. Plant response ratings, summarized in Table D, are based on a scale of 0 to 100 where 0 is no effect and 100 is complete control. A dash (-) response means no test result.

The subject of test [2] is sedge, umbrella (small-flower umbrella sedge, Cyperus difformis). The test is described as follows: Test C flooded paddy test: sedge, umbrella. The following applies: scale 0 to 100 (0 no effect, 100 complete control); for pest or weed control at 62 g/ha / pest or weed control at 250 g/ha / pest or weed control at 125 g/ha: Cyperus difformis, read-out: Plant response rating, Sedge, Umbrella. The essentials: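 2-leaf stage plants; pots flooded 3 cm above soil; compound applied into paddy water, depth maintained. Greenhouse 13–15 d. Visual rating vs controls, 0–100 (0 = no effect, 100 = complete control); dash = no result.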

Test [3] deals with chickweed (common chickweed, Stellaria media). The test is described as follows: Test D pre-/postemergence: chickweed.
Text: as §1, §2

Where [4] appears, read: Postemergence, 31 g ai/ha, scale 0 to 100 (0 no effect, 100 complete control).
Where [5] appears, read: Postemergence, 62 g ai/ha, scale 0 to 100 (0 no effect, 100 complete control).
Setting [6] is: Postemergence, 125 g ai/ha, scale 0 to 100, 0 no effect, 100 complete control.
The mark [7] stands for this setting: Postemergence, 250 g ai/ha, scale 0 to 100 (0 no effect, 100 complete control).
The mark [8] stands for this setting: Postemergence, 16 g ai/ha, scale 0 to 100.
Setting [9] is: Preemergence, 31 g ai/ha, scale 0 to 100, 0 no effect, 100 complete control.
[10] abbreviates: Preemergence, 62 g ai/ha, scale 0 to 100.
[11] abbreviates: Preemergence, 125 g ai/ha, scale 0 to 100.
Where [12] appears, read: Preemergence, 250 g ai/ha, scale 0 to 100.
Where [13] appears, read: Flood (flooded paddy test), 125 g ai/ha, visual rating after 13 to 15 days.
Where [14] appears, read: Flood (flooded paddy test), 250 g ai/ha, visual rating after 13 to 15 days.
Where [15] appears, read: Flood (flooded paddy test), 62 g ai/ha, visual rating after 13 to 15 days.
The mark [16] stands for this setting: Preemergence, 16 g ai/ha, scale 0 to 100, 0 no effect, 100 complete control.

Consider `Cc1nn(-c2ccc(C(F)(F)F)cn2)nc1Cc1cccc(C(F)(F)F)c1` [Compound 106], for which the “Plant response rating: Oat, Wild” value in test [1] (setting [4]) was 5; in test [1] (setting [5]), 5; in test [1] (setting [6]), 5; in test [1] (setting [7]) it was 20. The “Plant response rating, Oat, Wild” value in test [1] (setting [8]) was determined as 0; in test [1] (setting [9]) it was 0; in test [1] (setting [10]), 0; in test [1] (setting [11]), 10; in test [1] (setting [12]), 10. The “Plant response rating, Sedge, Umbrella” value in test [2] (setting [13]) is given as 75; in test [2] (setting [14]), 80; in test [2] (Flood, 31 g ai/ha) it was 50; in test [2] (Flood, 62 g ai/ha), 50. Further, the “Plant response rating: Chickweed” value in test [3] (setting [4]), in test [3] (setting [5]), in test [3] (setting [6]) and in test [3] (setting [7]) was 90 in each case. Moreover, the “Plant response rating, Chickweed” value is recorded as 20 in test [3] (setting [8]); 100 in test [3] (setting [9]); 100 in test [3] (setting [10]); 100 in test [3] (setting [11]); 100 in test [3] (setting [12]).
As to `Cc1nn(-c2ccc(C(F)(F)F)cn2)nc1Oc1ccnc(C(F)(F)F)c1` [Compound 23], the “Plant response rating: Oat, Wild” value is 10 in test [1] (setting [4]), 10 in test [1] (setting [5]), 15 in test [1] (setting [6]) and 20 in test [1] (setting [7]). The “Plant response rating, Oat, Wild” value in test [1] (setting [8]) was 10. In addition, the “Plant response rating, Sedge, Umbrella” value in test [2] (setting [15]) is 75; in test [2] (setting [13]) it was 80; in test [2] (setting [14]), 90; in test [2] (Flood, 31 g ai/ha) it was 60. In addition, the “Plant response rating: Chickweed” value was determined as 10 in test [3] (setting [4]), 15 in test [3] (setting [5]), 30 in test [3] (setting [6]) and 90 in test [3] (setting [7]). In addition, in test [3] (setting [8]), the “Plant response rating, Chickweed” value is 5.
Regarding `Cc1nn(-c2ccc(F)c(C(F)(F)F)c2)nc1Cc1ccnc(C(F)(F)F)c1` [Compound 156], the “Plant response rating: Oat, Wild” value was found to be 15 in test [1] (setting [4]), 20 in test [1] (setting [5]) and 65 in test [1] (setting [6]). Moreover, the “Plant response rating, Oat, Wild” value in test [1] (setting [8]) is recorded as 10; in test [1] (setting [16]), 5; in test [1] (setting [9]), 10; in test [1] (setting [10]), 25; in test [1] (setting [11]) it was 90. Moreover, the “Plant response rating: Chickweed” value is 75 in test [3] (setting [4]), 90 in test [3] (setting [5]) and 95 in test [3] (setting [6]). Moreover, the “Plant response rating, Chickweed” value in test [3] (setting [8]) is recorded as 60; in test [3] (setting [16]), 50; in test [3] (setting [9]), 100; in test [3] (setting [10]), 100; in test [3] (setting [11]), 100.
In the case of `FC(F)(F)COc1nn(-c2ccc(C(F)(F)F)cc2)nc1Cc1ccnc(C(F)(F)F)c1` [Compound 14, 4-[[5-(2,2,2-trifluoroethoxy)-2-[4-(trifluoromethyl)phenyl]-2H-1,2,3-triazol-4-yl]methyl]-2-(trifluoromethyl)pyridine], the “Plant response rating: Oat, Wild” value in test [1] (setting [4]) came out at 15; in test [1] (setting [5]), 25; in test [1] (setting [6]) it was 40; in test [1] (setting [7]) it was 55. Also, the “Plant response rating, Oat, Wild” value was 0 in test [1] (setting [9]), 20 in test [1] (setting [10]), 20 in test [1] (setting [11]) and 50 in test [1] (setting [12]). Besides, in test [2] (setting [15]), the pest or weed control at 62 g/ha came to 40%. Moreover, the pest or weed control at 250 g/ha in test [2] (setting [14]) came to 75%. The “Plant response rating: Chickweed” value was determined as 50 in test [3] (setting [4]), 80 in test [3] (setting [5]), 90 in test [3] (setting [6]) and 98 in test [3] (setting [7]). The “Plant response rating, Chickweed” value in test [3] (setting [9]) is 75; in test [3] (setting [10]) it was 100; in test [3] (setting [11]) it was 100; in test [3] (setting [12]), 100.
On to `Cc1nn(-c2ccc(C(F)(F)F)cc2)nc1Oc1csc(C(F)(F)F)c1` [Compound 1, 4-methyl-2-[4-(trifluoromethyl)phenyl]-5-[[5-(trifluoromethyl)-3-thienyl]oxy]-2H-1,2,3-triazole], for which the pest or weed control at 62 g/ha in test [2] (setting [15]) was 0%. Further, the pest or weed control at 250 g/ha in test [2] (setting [14]) came to 0%.
For `FCc1nn(-c2ccc(C(F)(F)F)cc2)nc1Oc1cccc(OC(F)(F)F)c1` [Compound 116, 4-(fluoromethyl)-5-[3-(trifluoromethoxy)phenoxy]-2-[4-(trifluoromethyl)phenyl]-2H-1,2,3-triazole], the pest or weed control at 125 g/ha in test [2] (setting [13]) turned out to be 75%. Besides, the pest or weed control at 250 g/ha in test [2] (setting [14]) was 85%. Besides, the pest or weed control at 62 g/ha in test [2] (Flood, 62 g ai/ha) came to 60%.
Consider `COCc1nn(-c2ccc(C(F)(F)F)cc2)nc1Oc1cccc(OC(F)(F)F)c1` [Compound 115, 4-(methoxymethyl)-5-[3-(trifluoromethoxy)phenoxy]-2-[4-(trifluoromethyl)phenyl]-2H-1,2,3-triazole], for which the pest or weed control at 125 g/ha in test [2] (setting [13]) was 75%. The pest or weed control at 250 g/ha in test [2] (setting [14]) worked out at 80%. The pest or weed control at 62 g/ha in test [2] (Flood, 62 g ai/ha) came out at 70%.
On to `COc1nn(-c2ccc(C(F)(F)F)cc2)nc1Cc1ccnc(C(F)F)c1` [Compound 138], for which the “Plant response rating: Oat, Wild” value amounted to 20 in test [1] (setting [4]), 30 in test [1] (setting [5]), 50 in test [1] (setting [6]) and 75 in test [1] (setting [7]). Moreover, the “Plant response rating, Oat, Wild” value in test [1] (setting [8]) is 10. The “Plant response rating: Chickweed” value in test [3] (setting [4]) stood at 60; in test [3] (setting [5]) it was 85; in test [3] (setting [6]) it was 95; in test [3] (setting [7]), 100. The “Plant response rating, Chickweed” value in test [3] (setting [8]) came to 60.
As to `COc1nn(-c2ccc(C(F)(F)F)cc2)nc1Cc1ccnc(C(F)(F)F)c1` [Compound 15, 4-[[5-methoxy-2-[4-(trifluoromethyl)phenyl]-2H-1,2,3-triazol-4-yl]methyl]-2-(trifluoromethyl)pyridine], the “Plant response rating: Oat, Wild” value worked out at 10 in test [1] (setting [4]), 10 in test [1] (setting [5]), 30 in test [1] (setting [6]) and 40 in test [1] (setting [7]). Moreover, the “Plant response rating, Oat, Wild” value amounted to 10 in test [1] (setting [8]), 15 in test [1] (setting [10]), 40 in test [1] (setting [11]) and 100 in test [1] (setting [12]). For the same molecule, in test [2] (setting [15]), the pest or weed control at 62 g/ha turned out to be 75%. Further, the pest or weed control at 250 g/ha in test [2] (setting [14]) was 80%. The “Plant response rating: Chickweed” value in test [3] (setting [4]), in test [3] (setting [5]), in test [3] (setting [6]) and in test [3] (setting [7]) was 100 in each case. The “Plant response rating, Chickweed” value in test [3] (setting [8]) stood at 40; in test [3] (setting [9]), 100; in test [3] (setting [10]), 100; in test [3] (setting [11]), 100; in test [3] (setting [12]) it was 100.
